Measurements taken from US8795222B2, “Device and method for treatment of surface infections with nitric oxide” (Pulmonox Technologies Corp., priority 2000, dated 2014).

Columns and labels:
[1] = system: Staphylococcus aureus; test: Full thickness infected wound model, wound bacterial content; type: in vivo, rabbits
Text: FIG. 9 illustrates wound bacterial content following topical application of 200 ppm gNO in a full thickness infected wound model in rabbits.
In vivo studies in animal models have further shown the beneficial effects of nitric oxide gas. In an animal model, full-thickness cutaneous wounds (Set A: four rabbits with eight 8.0 mm punch biopsies & Set B: 4 rabbits with two 50×15 mm wounds) were made on each side of dorsal midline and infected with equal volume of Staphylococcus aureus suspension on day zero. On day one, treated groups in A and B were respectively exposed to 200 and 400 ppm gNO for total of three days. […] A 24-hour continuous delivery model was used for animals in Set B by design of a specialized wound patch. Control groups were only exposed to medical grade air with corresponding flow rate. Four random sample punch biopsies (8.0 mm) were collected on post wounding days 3 and analyzed for bacterial content. Another four punch biopsies from both wound and normal skin tissue were collected for fibroblast viability analysis and toxic effects of gNO.
(§1) On average well over 10 fold drop (p<0.05) in bacterial content is observed in comparison between control and treated groups.

[2] = Full thickness infected wound model, toxicity, serum NOx and methemoglobin; type: in vivo, rabbits
Text: (§2) In vivo studies in animal models have further shown the beneficial effects of nitric oxide gas. In an animal model, full-thickness cutaneous wounds (Set A: four rabbits with eight 8.0 mm punch biopsies & Set B: 4 rabbits with two 50×15 mm wounds) were made on each side of dorsal midline and infected with equal volume of Staphylococcus aureus suspension on day zero. On day one, treated groups in A and B were respectively exposed to 200 and 400 ppm gNO for total of three days. Set A was exposed for two 4-hour sessions, interrupted by 1-hour of rest, inside a specialized restraining exposure chamber. A 24-hour continuous delivery model was used for animals in Set B by design of a specialized wound patch. Control groups were only exposed to medical grade air with corresponding flow rate. Four random sample punch biopsies (8.0 mm) were collected on post wounding days 3 and analyzed for bacterial content. Another four punch biopsies from both wound and normal skin tissue were collected for fibroblast viability analysis and toxic effects of gNO.
as §1
FIG. 12 indicates the level of methemoglobin (MetHb) in animal's blood following 6 day intermittent exposure to 200 ppm gNO.

[3] = system: full thickness infected wound; test: Histology of full thickness infected wound biopsies; type: in vivo, rabbits; conditions: 200 ppm gNO
Description: FIG. 13 illustrates histology analysis of full thickness infected wound exposed to 200 ppm gNO for 24 hours.
as §2
FIG. 13 presents histological analysis of tissue blocks prepared on wound punch biopsies from animals in treated and control groups. Samples from the control group show more advanced neutrophil infiltration and so a higher degree of inflammatory reaction. […] Wounds treated with gNO also show a layer of scab closing on the wound, but control wounds remain open for longer period of time.

[4] = system: fibroblasts grown in a 3D matrix; test: Fibroblasts grown in a 3D matrix, migration and proliferation; type: cell-based; conditions: 200 ppm NO for 8 hours per day for 3 days; compared with air or conventional incubator
[5] = system: S. aureus; test: gNO dose study, colony growth on agar plates; type: cell-based
Description: FIG. 6 depicts a S. aureus dosage curve for exposure to gaseous NO (gNO) with bacteria grown on solid media. Relative percentages of growth of S. aureus colony forming units (cfu) at 50, 80, 120 and 160 parts per million (ppm) of nitric oxide compared with growth of S. aureus cfu in medical air (100%) are shown.
To study the effects of gaseous nitric oxide on potential pathogens, a custom gas exposure incubator was designed and validated for temperature, humidity, and gas concentrations, providing an environment that matches that of a microbiologic incubator, while enabling controlled exposure of precise concentrations of the gas. […] The gNO chamber allowed control and adjustment of following factors in all in vitro studies: gNO dose, total air flow, NO2 levels, O2 levels, CO2 levels, temperature, and humidity. For the initial pilot studies, two strains of bacterial pathogen were selected based on two proposed clinical applications of gNO for respiratory infections and topical application. P. aeruginosa is associated primarily with pulmonary disease, but may also be associated with skin infection such as in severe burns. S. aureus is associated with surface wound infections. Both of these micro-organisms were chosen for the pilot study.
The first step in the process of evaluating the direct effect of gNO on bacteria was to design a simple study to determine what dose, if any, would be an approximate lethal concentration level for microbes. Once an optimal dose was estimated, then a timing study would be conducted. For these initial studies, highly dense inoculums of P. aeruginosa and S. aureus suspensions (10^8 cfu/ml) were plated onto agar plates. These plates were then exposed to various concentrations of gNO in the exposure device in order to evaluate the effect on colony growth.

[6] = system: collagen mRNA; test: mRNA expression after gNO exposure; type: cell-based
Text: Rather than applying exogenous collagenase for enzymatic debridement of necrotic tissue, exposing a wound with necrotic tissue to exogenous NO gas to upregulate endogenous collagenase may be more beneficial. When endogenous collagenase is released by the cell, it automatically releases TIMP's (tissue inhibitor of metalloproteinase). This ensures that the matrix degradation is coordinated and allows the establishment of sharp geographical boundaries of collagenolytic activity and the protection of areas of connective tissue from the activity of the enzyme. In contrast, use of exogenous collagenase material to debride a wound confers no protection to specific areas of the wound as it is active on every cell that comes in contact with it whether or not the effect is desired.
Preferably, after the exposure of the wound to high concentration of nitric oxide gas for a first treatment period (e.g., 5-8 hours per day), the necrotic tissue may be mechanically removed easily and the concentration of nitric oxide gas can be decreased for a second treatment period. The low concentration of nitric oxide gas (e.g., at 5-20 ppm) delivered for the second treatment period may upregulate the expression of collagen mRNA leading to synthesis of new collagen to aid in the closure of the wound. […] The second treatment period may be for a period 7-16 hours per day. […]

## [N]=O [gNO, nitric oxide]
[1]; 200 ppm gNO continuously for 72 hours, compared with medical air control
  wound bacterial content: significant bacterial reduction
[1]; 400 ppm gNO, control versus treated, p<0.05
  drop in wound bacterial content: over 10 fold
[2]; 200 ppm gNO intermittently for 6 days
  blood serum NOx (NO2 and NO3) level: None of the samples show an increased level of NOx
[2]; 200 ppm gNO, compared with control
  toxic effect or damage in the skin of treated animals: no toxic effect or damage were observed
[2]; 6 day intermittent exposure to 200 ppm gNO, compared with air control
  blood methemoglobin (MetHb) level: did not show an increase level of MetHB
[3]
  toxic effects (cellular debris due to apoptosis), histology: No toxic effects
[3]; compared with control wounds
  healing process, histology: healthier healing process
  neutrophil infiltration in wound: lower level of neutrophil concentration
[4]
  migration of fibroblasts: does not appear to affect
  proliferation of fibroblasts: does not appear to interfere
[5]; 24 hours after gNO exposure, controls overgrew
  colony size and number after transfer to a conventional incubator: remained the same in size and number
[5]; gNO greater than 120 ppm, agar plates
  time required to achieve the >90% reduction of colony formation: 8 to 12 h
[5]; gNO greater than 120 ppm, agar plates, compared with medical air
  reduction of colony formation: greater than 90%
[5]; increasing gNO to 120 ppm, agar plates
  survival: 5-10%
[6]; fibroblast exposed to 5 ppm of NO
  collagen mRNA expression: increased collagen mRNA expression
[6]; high concentration, 200 ppm gNO, 24 hours and 48 hours
  collagen expression: possible inhibition of collagen expression
